Test results as given in US20200291391A1, “CROSS-LINKED EPITOPES AND METHODS OF USE THEREOF” (Indi Molecular, Inc., priority 2019, published 2020).
Entries after “also recorded” stand apart in the source; their conditions may differ. Where a SMILES comes first, the peptide text is derived from it. Bridges are numbered along the chain shown (N, C = ends). Triazole bridges read from a SMILES are 1,4-linked. Where no end group is shown, it is not given here. [ ]: non-standard residue; d: D form. Lys(N3) = [N-]=[N+]=NCCCC[C@H](N)C(=O)O; Pra = C#CC[C@H](N)C(=O)O

What was measured:
CD8+SupT1 cells = test: Flow cytometry binding to CD8+ cells; assay type: cell-based; details: for selective binding to CD8+ cells in flow cytometry: SupT1 (CD8+) vs Jurkat (CD8-) cells, FIG. 11; for binding to CD8+SupT1 cells by flow cytometry: with the 1kPEG linker
Experimental: (§1) Three hits were left after this screening (Table 3). These hits were assessed in solid phase ELISA and in flow cytometry experiments.
(§2) Binding of krsah (SEQ ID NO:27) was detected on both CD8+SupT1 cells and CD8−Jurkat cells. The mean fluorescence intensity ratio to each of the ligands tfpkk (SEQ ID NO:21), krsah (SEQ ID NO:27), and snprk (SEQ ID NO:28) was determined (Table 4). The mean fluorescence intensity ratio of different amounts of the ligand tfpkk (SEQ ID NO:21) was determined (Table 5).
(§3) Binding of Biotin-1kPEG-tfpkk (SEQ ID NO:21) to CD8+SupT1 cells or CD8−Jurkat was performed at room temperature (RT) or 4° C.
(§4) Concentration of biotin-1kPEG-tfpkk (SEQ ID NO:21) and -nfyrr (SEQ ID NO:32) was titrated on SupT1 and Jurkat cells. The biotin-1kPEG-ligands were incubated with CD8+SupT1 cells and CD8−Jurkat cells at a concentrations of […].

epitope B2 = biological target: T1, epitope B2 (Homo sapiens, UniProt P01732, L47X); test: Epitope bound by ligand; assay type: binding
T1 construct: host or cells: synthetic peptide (per the listing)
Experimental: Epitope B2 ligand tfpkk (SEQ ID NO:21) and the three hit ligands selected against CD8 epitopes A2, B2, H, and J were tested for binding to CD8+ and CD8− cells by flow cytometry.

CD8−Jurkat cells = test: Flow cytometry binding to CD8- cells; assay type: cell-based; details: with the 1kPEG linker
Experimental: as §1, §2, §3, §4

[1] = biological target: T2, CD8 epitopes A, B, C, D, and E (Homo sapiens, UniProt P01732, M123X); test: Bead-coupled alkyne peptide screened with azide- and biotin-containing epitopes, alkaline phosphatase-streptavidin development; assay type: binding; details: D, and E tested
T2 construct: host or cells: synthetic peptide (per the listing)
Experimental: The epitope E ligand used in the biligand is tfpkk (SEQ ID NO:21). It was determined that tfpkk (SEQ ID NO:21) binds to epitope E by screening an alkyne-containing tfpkk peptide (SEQ ID NO:21) coupled to a bead (FIG. 8) with azide- and biotin-containing epitopes A, B, C, D, and E (FIG. 9). The epitopes used in the screen were: Epitope A (a.a. 1-10): Biotin-PEG3-[Az4]-SQFRVSPLDR (SEQ ID NO:22); Epitope B (a.a. 24-32): Biotin-PEG3-[Az4]-VLLSNPTSG (SEQ ID NO:23); Epitope C (a.a. 58-77): Biotin-PEG3-KAAEGLDTQ-[Az4]-FSGKRLGDTF (SEQ ID NO:24); Epitope D (a.a. 68-83): Biotin-PEG3-FSGKRL-[Az4]-DTFVLTLSD (SEQ ID NO:25); Epitope E (a.a. 95-110): Biotin-PEG3-SALSNSI-[Az4]-YFSHFVPV (SEQ ID NO:26).
This is in agreement with docking calculations of binding affinities of the epitopes to tfpkk (SEQ ID NO:21) and a control peptide (krsah; SEQ ID NO:27) (Table 2).

Row | Molecule | selective binding to CD8+ cells in flow cytometry (CD8+SupT1 cells) | epitope bound (epitope B2) | binding to CD8+SupT1 cells by flow cytometry (CD8+SupT1 cells) | binding to CD8−Jurkat cells by flow cytometry (CD8−Jurkat cells) | color development of beads with alkaline phosphatase-linked streptavidin [1]
1 | nsprw: CD8 ligand hit of four epitope cocktail screening ([dN][dS][dP][dR][dW]) | weak (and weakly selective) binding to CD8+ cells | – | – | – | –
2 | C[C@H](O)[C@H]1NC(=O)[C@@H](Cc2ccc(O)cc2)NC(=O)[C@@H](Cc2c[nH]cn2)NC(=O)[C@@H](CCCCN)NC(=O)[C@@H](N)Cc2cn(nn2)CCCC[C@@H](C(N)=O)NC(=O)[C@@H](CC(N)=O)NC1=O [khytn] (H-[Pra][dK][dH][dY][dT][dN][Lys(N3)]-NH2; triazole 1-7; N-terminus assumed) | – | bind to epitope B2 | – | – | –
3 | herlk: CD8 ligand hit of four epitope cocktail screening ([dH][dE][dR][dL][dK]) | weakly selective binding to CD8+ cells | – | – | – | –
4 | krsah: CD8 ligand hit; control peptide in docking ([dK][dR][dS][dA][dH]) | – | – | can be detected | detected; also recorded: also observed | –
5 | tfpkk: CD8 ligand peptide; epitope E ligand used in the biligand ([dT][dF][dP][dK][dK]) | – | bind to epitope B2 | observed | little binding | color only when epitope E was used
